US9631096B2, “Dye compositions, methods of preparation, conjugates thereof, and methods of use” (CORNELL UNIVERSITY, priority 2012, dated 2017)

Key:
[1] = Single-molecule FRET with donor and acceptor dyes on ribosomal proteins S13 and L1; format: physicochemical, E. coli; conditions: ribosome S13/L1 labels, 532 nm excitation, same day and conditions, FIG. 12
Description: In this study, donor and acceptor fluorophores are attached to two ribosomal proteins (S13 small subunit; L1 large subunit, respectively).
Ribosomal protein S13 was PCR cloned from E. coli strain K12 genomic DNA into the pPROEX HTb vector with a TEV-protease-cleavable histidine (His)6 tag and a 12-residue peptide encoding the S6 epitope for the Sfp phosphopantetheinyl transferase reaction (amino acid sequence, [sequence]) fused at the N terminus (N-Sfp). {Yin, J., Lin, A. J., Golan, D. E. & Walsh, C. […] 1, 280-285 (2006)} After transformation of this plasmid into an E. coli ΔS13 knockout strain, cells were cultured and ribosomes were harvested as previously described. {Wang, L., Altman, R. B. & Blanchard, S. C. […]
Single-molecule FRET experiments were performed at room temperature in Tris-polymix with 5 mM Mg2+ buffer, as previously described {Wang, L., Altman, R. B. & Blanchard, S. C. […] The smFRET data were acquired by directly exciting the Cy3 fluorophore at 532 nm (LaserQuantum) while the Cy3 and Cy5 intensities were simultaneously recorded in Metamorph (Molecular Devices) with a 40-ms integration time. The data were analyzed in MATLAB (MathWorks) and plotted in Origin (OriginLab), as previously described. {Munro, J. B., Altman, R. B., O'Connor, N. & Blanchard, S. C.

[2] = Single-molecule TIRF fluorescence imaging of dye-labeled duplex DNA (photostability); format: physicochemical
Protocol: Each DNA strand was individually labeled with a single, NHS-activated “self-healing” fluorophore and hybridized to a complementary strand. Purified duplexes were used for single-molecule experiments.
All experiments were performed using a laboratory built, prism-based TIRE apparatus. Biotinylated DNA molecules were immobilized via a biotin-streptavidin interaction within microfluidic channels constructed on quartz slides. Fluorescence from surface-immobilized molecules, illuminated via the evanescent wave generated by total internal reflection of a 640 nm laser source, was collected using a water-immersion objective and imaged onto a EMCCD camera. […]
The photophysical properties of fluorophores were analyzed using automated software built in-house using Matlab. To extract kinetic parameters of blinking and photobleaching, the fluorescence traces were normalized to the mean fluorescence intensity of each dataset and idealized using the SKM algorithm and a 3-state model with one fluorescent (on) state, a transient dark state (blinking) and a permanent dark state (photobleaching). Time on (τon) was calculated by fitting the cumulative distribution to an exponential function.
By tracking the fluorescence of individual molecules over time, the intensity and duration of fluorescence, as well as the kinetics of blinking and photobleaching could be quantified. […]

[3] = Laser flash photolysis (time-resolved transient absorption) of Cy5 derivatives with benzophenone sensitizer; format: physicochemical; conditions: for lifetime of the 700 nm transient: acetonitrile, BP 5 mM, Cy5 22 μM
Description: This experiment examined whether enhanced photostability of the Cy5 fluorophore, when covalently linked to protective agents (COT, NBA or Trolox) (Chart 1) can be specifically attributed to a triplet state quenching mechanism using laser flash photolysis (time-resolved transient absorption spectroscopy).
Because the formation of triplet states of Cy5 is inefficient (triplet quantum yield <0.003) upon direct excitation, a triplet sensitizer was employed to more efficiently populate the Cy5 triplet state (^3Cy5*) through an energy transfer mechanism (eq 1).
Deoxygenated acetonitrile solutions containing BP and Cy5 were irradiated with light pulses from a Nd-YAG laser at 355 nm (5 ns pulse width) to generate transient absorption kinetic traces across the visible spectrum. From these traces, transient absorption spectra at different times after the laser pulse were constructed (FIG. 3). Directly after the laser pulse the spectrum is dominated by the triplet absorption of BP, which is known to show a peak at 525 nm. […] Assignment of this new transient at 700 nm as the triplet state absorption of Cy5 was subsequently confirmed by performing quenching studies in the presence of a small amount of oxygen (0.45 mM; generated by bubbling the acetonitrile solution with a gas mixture of 5% O2 and 95% N2).
In addition to different protective agents (COT, NBA and Trolox), the length of the spacer between Cy5 and the protective agent was also varied. Laser flash photolysis experiments in argon-saturated acetonitrile solutions using BP as the sensitizer were performed on each of the Cy5 derivatives. […] The initial growth in transient absorption is caused by the energy transfer process from ^3BP* to the Cy5 chromophore analog in eq 1, which is then followed by the decay of the Cy5 triplet state. The concentrations of the Cy5 derivatives were optimized in order to ensure accurate triplet lifetime determination. […]

[4] = cited from earlier work

Compound	brightness and duration of donor and acceptor fluorescence / quality of FRET data [1]	time period of fluorescence before blinking or photobleaching (visual inspection of traces) ([2]; individual fluorescence traces, dye on double stranded DNA, 641 nm)	Average number of photons (10^4 photons) detected before photobleaching or blinking ([2]; single-molecule measurements, dye on duplex DNA, TIRF, 641 nm illumination, deoxygenated solution)	τtriplet (triplet lifetime) ([3]; deoxygenated acetonitrile, BP sensitizer, 355 nm pulse, triplet absorption at 700 nm) [μs]	lifetime of the 700 nm transient ([3]; in the absence of O2 (argon purged)) [μs]	lifetime of the 700 nm transient ([3]; in the presence of O2 (0.45 mM; 5% O2/95% N2)) [μs]	quantum yield ([4]; fluorescence)	triplet quantum yield ([4]; upon direct excitation)
CCN1C(=CC=CC2=[N+](CCCCCC(=O)O)c3ccc(S(=O)(=O)O)cc3C2(C)C)C(C)(C)c2cc(S(=O)(=O)[O-])ccc21 [Cy3]	short-lived and are noisy and relatively difficult to analyze	–	–	–	–	–	–	–
CCN1/C(=C/C=C/C=C/C2=[N+](CCCCCC(=O)O)c3ccc(S(=O)(=O)O)cc3C2(C)C)C(C)(C)c2cc(S(=O)(=O)[O-])ccc21 [Cy5]	short-lived and are noisy and relatively difficult to analyze	shortest	2.1 ± 0.1 10^4 photons	63 ± 3	~22	1.7	approximately 0.3	< 0.003
